How the values were obtained:
Assay type in all cases: in vivo
[1] = tested on: blackgrass (Alopecurus myosuroides); assay: Test A postemergence, blackgrass; details: visual injury, 0 to 100 scale (0 no effect, 100 complete control), approximately 10 days
In short: (§1)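 Visual injury on a 0 to 100 scale, about 10 days post-spray in the greenhouse. Postemergence plants measured 2–10 cm at one to two leaves; preemergence pots received a directed soil spray. Soil was a loam–sand blend.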

[2] = tested on: ryegrass, Italian (Lolium multiflorum); assay: Test A preemergence, Italian ryegrass; details: 0 to 100 scale (0 no effect, 100 complete control)
In short: as §1

[3] = tested on: wheat (Triticum aestivum); assay: Test A postemergence, wheat; details: visual injury, 0 to 100 scale (0 no effect, 100 complete control), approximately 10 days
In short: as §1

[4] = tested on: ducksalad (Heteranthera limosa); assay: Test B flooded paddy test, ducksalad; details: 250 g ai/ha, applied to paddy water, visual rating after 13 to 15 days, scale 0 (no effect) to 100 (complete control)
In short: (§2)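 Ratings were visual and made relative to untreated controls after 13 to 15 greenhouse days.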

[5] = tested on: foxtail, giant (Setaria faberii); assay: Test A preemergence, giant foxtail; details: 0 to 100 scale (0 no effect, 100 complete control)
In short: as §1

kochia (Kochia scoparia) [6] = assay: Test A postemergence, kochia; details: visual injury, 0 to 100 scale (0 no effect, 100 complete control), approximately 10 days
In short: as §1

[7] = tested on: pigweed (Amaranthus retroflexus); assay: Test A postemergence, pigweed; details: visual injury, 0 to 100 scale (0 no effect, 100 complete control), approximately 10 days
In short: as §1

[8] = tested on: pigweed (Amaranthus retroflexus); assay: Test A preemergence, pigweed; details: 0 to 100 scale (0 no effect, 100 complete control)
In short: as §1

rice (Oryza sativa) = assay: Test B flooded paddy test, rice; details: 250 g ai/ha, applied to paddy water, visual rating after 13 to 15 days, scale 0 (no effect) to 100 (complete control)
In short: as §2

corn (Zea mays) = assay: Test A postemergence, corn; details: visual injury, 0 to 100 scale (0 no effect, 100 complete control), approximately 10 days
In short: as §1

[9] = tested on: sedge, umbrella (small-flower umbrella sedge, Cyperus difformis); assay: Test B flooded paddy test, umbrella sedge; details: 250 g ai/ha, applied to paddy water, visual rating after 13 to 15 days, scale 0 (no effect) to 100 (complete control)
In short: as §2

[10] = tested on: ragweed (common ragweed, Ambrosia elatior); assay: Test A postemergence, ragweed; details: visual injury, 0 to 100 scale (0 no effect, 100 complete control), approximately 10 days
In short: as §1

[11] = tested on: galium (catchweed bedstraw, Galium aparine); assay: Test A postemergence, galium; details: visual injury, 0 to 100 scale (0 no effect, 100 complete control), approximately 10 days
In short: as §1

[12] = tested on: ragweed (common ragweed, Ambrosia elatior); assay: Test A preemergence, ragweed; details: 0 to 100 scale (0 no effect, 100 complete control)
In short: as §1

kochia (Kochia scoparia) [13] = assay: Test A preemergence, kochia; details: 0 to 100 scale (0 no effect, 100 complete control)
In short: as §1

[14] = tested on: ryegrass, Italian (Lolium multiflorum); assay: Test A postemergence, Italian ryegrass; details: visual injury, 0 to 100 scale (0 no effect, 100 complete control), approximately 10 days
In short: as §1

[15] = tested on: foxtail, giant (Setaria faberii); assay: Test A postemergence, giant foxtail; details: visual injury, 0 to 100 scale (0 no effect, 100 complete control), approximately 10 days
In short: as §1

[16] = tested on: barnyardgrass (Echinochloa crus-galli); assay: Test A preemergence, barnyardgrass; details: 0 to 100 scale (0 no effect, 100 complete control)
In short: as §1

[17] = tested on: barnyardgrass (Echinochloa crus-galli); assay: Test B flooded paddy test, barnyardgrass; details: 250 g ai/ha, applied to paddy water, visual rating after 13 to 15 days, scale 0 (no effect) to 100 (complete control)
In short: as §2

[18] = tested on: barnyardgrass (Echinochloa crus-galli); assay: Test A postemergence, barnyardgrass; details: visual injury, 0 to 100 scale (0 no effect, 100 complete control), approximately 10 days
In short: as §1

Row | SMILES | Plant response rating, Blackgrass ([1]; 125 g ai/ha) | Plant response rating, Blackgrass ([1]; 500 g ai/ha) | Plant response rating, Ryegrass, Italian ([2]; 125 g ai/ha) | Plant response rating, Ryegrass, Italian ([2]; 500 g ai/ha) | Plant response rating, Wheat ([3]; 125 g ai/ha) | Plant response rating, Wheat ([3]; 500 g ai/ha) | Plant response rating, Ducksalad (Flood) [4] | Plant response rating, Foxtail, Giant ([5]; 125 g ai/ha) | Plant response rating, Foxtail, Giant ([5]; 500 g ai/ha) | Plant response rating, Kochia (kochia (Kochia scoparia) [6]; 125 g ai/ha) | Plant response rating, Kochia (kochia (Kochia scoparia) [6]; 500 g ai/ha) | Plant response rating, Pigweed ([7]; 125 g ai/ha) | Plant response rating, Pigweed ([7]; 500 g ai/ha) | Plant response rating, Pigweed ([8]; 125 g ai/ha) | Plant response rating, Pigweed ([8]; 500 g ai/ha) | Plant response rating, Rice (Flood) (rice (Oryza sativa)) | Plant response rating, Corn (corn (Zea mays); 125 g ai/ha) | Plant response rating, Corn (corn (Zea mays); 500 g ai/ha) | Plant response rating, Sedge, Umbrella (Flood) [9] | Plant response rating, Ragweed ([10]; 125 g ai/ha) | also measured
1 | O=C1NCC(c2cccc(OCC3CC3)c2)C1C(=O)Nc1cccc(F)c1F (stereo not drawn) [Compound 12] | 0 | 60 | 0 | 20 | 0 | 50 | 20 | 90 | 90 | 0 | 20 | 0 | 20 | 0 | 30 | 0 | 0 | 60 | 0 | 30 | Plant response rating, Ragweed ([10]; 500 g ai/ha): 30; Plant response rating, Galium ([11]; 125 g ai/ha): 0; Plant response rating, Galium ([11]; 500 g ai/ha): 50; Plant response rating, Ragweed ([12]; 125 g ai/ha): 0; Plant response rating, Ragweed ([12]; 500 g ai/ha): 0; Plant response rating, Kochia (kochia (Kochia scoparia) [13]; 125 g ai/ha): 0; Plant response rating, Kochia (kochia (Kochia scoparia) [13]; 500 g ai/ha): 40; Plant response rating, Ryegrass, Italian ([14]; 125 g ai/ha): 20; Plant response rating, Ryegrass, Italian ([14]; 500 g ai/ha): 50; Plant response rating, Foxtail, Giant ([15]; 125 g ai/ha): 70; Plant response rating, Foxtail, Giant ([15]; 500 g ai/ha): 90; Plant response rating, Barnyardgrass ([16]; 125 g ai/ha): 90; Plant response rating, Barnyardgrass ([16]; 500 g ai/ha): 90; Plant response rating, Barnyardgrass (Flood) [17]: 0; Plant response rating, Barnyardgrass ([18]; 125 g ai/ha): 70; Plant response rating, Barnyardgrass ([18]; 500 g ai/ha): 90
2 | CC1(COc2cccc(C3CNC(=O)C3C(=O)Nc3ccccc3F)c2)COC1 (stereo not drawn) [Compound 14] | 0 | 0 | 0 | 0 | 0 | 0 | 70 | 30 | 90 | 0 | 0 | 0 | 0 | 0 | 0 | 0 | 0 | 0 | 20 | 0 | Plant response rating, Ragweed ([10]; 500 g ai/ha): 0; Plant response rating, Galium ([11]; 125 g ai/ha): 0; Plant response rating, Galium ([11]; 500 g ai/ha): 0; Plant response rating, Ragweed ([12]; 125 g ai/ha): 0; Plant response rating, Ragweed ([12]; 500 g ai/ha): 0; Plant response rating, Kochia (kochia (Kochia scoparia) [13]; 125 g ai/ha): 0; Plant response rating, Kochia (kochia (Kochia scoparia) [13]; 500 g ai/ha): 0; Plant response rating, Ryegrass, Italian ([14]; 125 g ai/ha): 0; Plant response rating, Ryegrass, Italian ([14]; 500 g ai/ha): 0; Plant response rating, Foxtail, Giant ([15]; 125 g ai/ha): 10; Plant response rating, Foxtail, Giant ([15]; 500 g ai/ha): 70; Plant response rating, Barnyardgrass ([16]; 125 g ai/ha): 10; Plant response rating, Barnyardgrass ([16]; 500 g ai/ha): 80; Plant response rating, Barnyardgrass (Flood) [17]: 0; Plant response rating, Barnyardgrass ([18]; 125 g ai/ha): 10; Plant response rating, Barnyardgrass ([18]; 500 g ai/ha): 60
